Measurements published in patent US10864192B2, “Compositions and methods for inhibiting brain trauma-induced neurodegeneration and related conditions” (priority 2016, dated 2020).
“And” between values parts separate entries of the source, which are not always exact repeats. Equal values may be shown once.

Experiments:
[1] = molecular target: amyloid precursor protein (APP) (Mus musculus (Mouse), UniProt P12023); experiment: Amyloid precursor protein in primary cortical neurons (Western blot); format: cell-based; details: 48 hr
Sequence of amyloid precursor protein (APP) (P12023 whole entry, looked up): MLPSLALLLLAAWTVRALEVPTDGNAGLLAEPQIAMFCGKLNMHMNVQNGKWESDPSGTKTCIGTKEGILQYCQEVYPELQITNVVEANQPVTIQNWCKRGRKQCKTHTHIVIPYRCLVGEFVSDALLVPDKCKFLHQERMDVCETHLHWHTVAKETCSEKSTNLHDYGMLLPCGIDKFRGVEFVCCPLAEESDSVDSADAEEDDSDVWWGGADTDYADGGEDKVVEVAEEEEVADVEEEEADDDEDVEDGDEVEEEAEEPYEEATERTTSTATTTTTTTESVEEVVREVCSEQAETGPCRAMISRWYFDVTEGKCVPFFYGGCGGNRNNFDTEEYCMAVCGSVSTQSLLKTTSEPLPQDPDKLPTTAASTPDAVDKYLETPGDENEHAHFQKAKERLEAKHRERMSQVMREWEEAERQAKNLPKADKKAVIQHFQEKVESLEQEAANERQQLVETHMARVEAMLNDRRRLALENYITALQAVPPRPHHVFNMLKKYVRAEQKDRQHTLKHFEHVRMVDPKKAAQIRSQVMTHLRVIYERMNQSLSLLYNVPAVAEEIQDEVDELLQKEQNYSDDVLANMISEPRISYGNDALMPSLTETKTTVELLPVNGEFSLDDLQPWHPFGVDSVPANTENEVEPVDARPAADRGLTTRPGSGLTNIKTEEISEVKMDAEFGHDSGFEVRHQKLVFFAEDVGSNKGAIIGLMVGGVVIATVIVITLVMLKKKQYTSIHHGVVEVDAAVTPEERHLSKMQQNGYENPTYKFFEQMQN
Protocol: Primary cortical neurons were harvested and isolated from mice, and then were cultured in line with methodologies known in the art. In brief, embryonic day 15-18 mouse pups were obtained from timed pregnant female mice (5 pups). Within a laminar flow cell culture hood, the brain was removed from these mouse pups and the meninges and blood vessels were carefully removed. […] Maintained on wet ice, individual cells were then isolated by titrating some 10 times to dissociate cells by use of using a glass pasture pipette with a fire polished tip. […]
Following maintenance in cell culture (>24 hr) primary cortical neurons were challenged to known concentrations of experimental drugs for 48 hr, or vehicle (culture media) alone. […] Quantification of select proteins, for example AAP was undertaken by Western Blotting using the APP N-terminal antibody (22C11) obtained from Chemicon (Temecula, Calif.). The housekeeping protein β-actin quantified in the same samples to allow normalization, and was probed with anti-β-actin (Chemicon). The Western blots were developed by using chemiluminescence (PIERCE), were visualized with a Phospholmager (BioRad, Hercules, Calif.), and resulting bands were quantified by QuantityOne software (BioRad).

[2] = system: acetyl- and butyrylcholinesterase; experiment: Cholinesterase inhibition in mice after the final dose; format: in vivo, mouse; details: 24 hours following the final dose
Text: The same model of concussive head injury described above with respect to FIG. 7 was used in the experiments described below with respect to FIGS. 8 and 9. […] Previous studies of drug and metabolite concentrations have shown acetylcholinesterase inhibition to be present when any concentration of drug or metabolite have been detected. […] Drug and its metabolites have been shown undetectable when no anticholinesterase activities are present.

clinical = experiment: clinical
Text: FIGS. 33-34 depict two graphs from an Excel spreadsheet. FIG. 33 is a linear plot of plasma level vs time and FIG. 34 is a semi-log plot of plasma conc. vs time.

Lipophilicity (Log D) = format: physicochemical
[3] = system: human peripheral blood mononuclear cells (PBMCs); experiment: PHA-induced cytokine production in human PBMCs; format: cell-based; details: phenserine 100 nM to 10 μM, 24 hr, PHA 3 μg/mL
Text: The detection limit for these assays is <1 pg/mL for IL-1beta and <3 pg/mL for IL-10. The intra- and inter-assay CV was <10%. All results are expressed in picograms per milliliter.

[4] = Tolerability of immediate release phenserine in patients; format: in vivo, human; details: immediate release dose of 20 mg
SH-SY5Y cells = experiment: Oxygen-glucose deprivation/reperfusion (OGD/RP) damage on SH-SY5Y cells; format: cell-based, human
Protocol: Briefly, Human neuroblastoma SH-SY5Y cells were incubated in oxygen-glucose deprivation and hypoxia using serum- and glucose-free media and 95% N2 and 5% CO2 for 5 minutes. Adult male Sprague-Dawley rats (250 to 350 g weight) were anesthetized with chloral hydrate (0.4 g/kg, intraperitoneally) and right middle cerebral artery (MCA) was ligated for 60 minutes. The core body temperature of animals was maintained at 37° C. throughout the procedure.

[5] = Plasma concentrations of phenserine and its metabolites in human plasma; format: in vivo
Protocol: The relationship between pharmacokinetic and pharmacodynamics evaluated in FIG. 15 was evaluated in aged volunteers. A total of 32 subjects (60-80 years of age, 11 males/21 females) were screened and enrolled. All participants provided informed consent, the conduct of the study were approved and overseen by the local Review IRB.
For pharmacokinetic (blood concentrations of primary drug and select metabolites) a dose […] additionally was evaluated.
These were centrifuged within 15 min of collection, and stored in a freezer at −70° C. freezer in marked polypropylene tubes until analysis. Phenserine levels were quantified by liquid chromatography/mass spectrometry (LC/MS/MS). In brief, analyses were undertaken on Perkin-Elmer (PE, Norwalk, USA) high performance liquid chromatographic (HPLC) instrumentation. Compound separation was performed on a Phenomenex LUNA C18 column (5 μM, 2.0 mm×150 mm; Torrance, USA), with a Phenomenex guard column (2 mm×30 mm). The mobile phase was 60% acetonitrile (HPLC grade) plus 40% ammonium acetate (v/v) with a flow rate of 0.4 mL/min. […] Thereafter, 2 mL of tert-butyl methyl ether was added and the sample was mixed and flash frozen. The organic layer was decanted, dried under a stream of nitrogen and reconstituted into 250 μL of mobile phase. Of this, a 60 μL sample was then injected into the HPLC.

[6] = in vivo

## CN1CC[C@@]2(C)c3cc(OC(=O)Nc4ccccc4)ccc3N(C)[C@@H]12 [phenserine, (−)-phenylcarbamoyleseroline]
[1]
  amyloid precursor protein level: inhibition of amyloid precursor protein
[2]
  inhibition of acetyl- and butyrylcholinesterase: no inhibition
clinical; human, in vivo, 15 mg
  Cmax: 3.02 ng/mL and 8.9 nM
clinical; targeted 30 mg/d or 60 mg/d in sustained release formulation
  expected plasma levels: 1.58 to 0.53 ng/ml
Lipophilicity (Log D)
  logD: 2.2
[3]
  PHA-induced anti-inflammatory IL-10 levels: without impacting
  PHA-induced elevation in pro-inflammatory IL-1β levels: substantially mitigated
[4]
  negative consequences in patients: negative consequences (e.g., vomiting, diarrhea, nausea, etc.) have been observed
SH-SY5Y cells
  matrix metallopeptidase 9 (MMP-9): reduced
[5]; Hour 1
  Average Plasma Concentrations: 3.02 ng/mL
[5]; Hour 2
  Average Plasma Concentrations: 2.09 ng/mL
[5]; Hour 3
  Average Plasma Concentrations: 1.08 ng/mL
[5]; Hour 4
  Average Plasma Concentrations: 0.31 ng/mL
[6]
  Brain:Plasma Partitioning: 6.8-10:1
  brain:blood partition: approx. 8:1
